# According to patent publication US8288350B2, “Methods to prevent and treat diseases” (Nour Heart, Inc., priority 2006, dated 2012):
# Where no end group is shown, it is not given here. The star is where a group is joined. Boc = CC(C)(C)OC(=O)*
# Experiments:
# [1] = Global warm ischemia by aortic cross clamping, then working Longerdorff heart; format: in vivo, dog
# Procedure: Cyclocreatine (25 gm in 500 ml saline) was injected intravenously into a dog one hour before the induction of global warm ischemia. Control dogs received saline. All dogs underwent one hour of global warm ischemia by cross clamping the aorta. After the one hour of warm ischemia, hearts were removed, perfused for an additional four hours with buffer containing 1% cyclocreatine ([…]), and then placed on a working Longerdorff to measure cardiac function. After the initiation of the aortic cross clamping, cyclocreatine-treated heart continued to beat for 9 minutes during warm ischemia, while the control heart stopped beating after 2 minutes. Similarly, myocardial pH was 7.04 in the cyclocreatine-treated heart compared to pH 6.00 in control heart when measured 6 minutes after the induction of warm ischemia.
# The results indicated a reduction of the caspase enzyme activities in the cyclocreatine dog (26-76% reduction of baseline) compared to the significant stimulation observed in control dogs (1.44-3.86-fold increase over baseline). […] Cyclocreatine treatment may stimulate the anti-apoptotic members of the family such as Bcl-2 and/or Bcl-x, or inhibit the pro-apoptotic members of the family such as Bak, Bax, and Bim.
# [2] = tested on: Neutrophils isolated from human peripheral blood; assay: Inhibition of neutrophil chemotaxis induced by human vascular Nourin (vein graft samples, 96 well chemotaxis plates); format: cell-based
# Procedure: Isolated Human Vein Grafts: Patients' leg veins were removed from five patients scheduled for coronary bypass surgery. The samples for each patient were distended for 10 minutes at 300 mm Hg pressure and incubated in buffer (HBSS) for 1 hour at room temperature. Undistended vein grafts were incubated at room temperature in HBSS for one hour and then the solutions were tested for chemotactic activity.
# Chemotaxis Assay: The chemotactic activity of vein samples was tested using standard chemotaxis assay. Briefly, neutrophils were isolated from human peripheral blood and labeled by fluorescence dye. These labeled neutrophils were used as migratory cells and placed on the top chamber of the 96 well chemotaxis plates. The vein samples were placed at the bottom wells of the plate. A filter was placed in between and the ability of the tested samples to stimulate the migration of neutrophils across the membrane was determined by incubating the chamber at 37° C. for 1 hour. The standard synthetic chemoattractant f-Met-Leu-Phe (f-MLF (SEQ ID NO:11)) was used as the positive control for 100% chemotactic response. Hank's Balanced Salt Solution (HBSS) was the negative control for random migration. Neutrophil migration was reported as the number of labeled neutrophils detected at the bottom wells which crossed the membrane filter in response to the test solutions. The samples were tested in triplicate wells.
# Inhibition of the human vascular Nourin by the N-formylmethionyl blocker t-Boc-FLFLF (SEQ ID NO:2): t-Boc FLFLF (SEQ ID NO:2) is a FPR antagonist and was tested for its ability to inhibit Nourin activity on neutrophil migration. In the chemotaxis chamber, t-Boc-FLFLF (SEQ ID NO:2) was used at a final concentrations of 10^−5 Molar. […] In one human sample, t-Boc-FLFLF (SEQ ID NO:2) inhibited 100% of neutrophil chemotaxis. Similarly, the FPR antagonist Spinorphin inhibited neutrophil chemotaxis stimulated by Nourin.
# [3] = tested on: Neutrophils isolated from human peripheral blood; assay: Inhibition of fMLF chemotactic activity (chemotaxis chamber); format: cell-based; conditions: FIG. 3
# [4] = tested on: Neutrophils isolated from human peripheral blood; assay: Inhibition of neutrophil chemotaxis induced by chemotactic factor released by H1N1-infected MDCK cells (modified chemotaxis chamber); format: cell-based; conditions: concentrations about 10^-5 to 10^-3 Molar; supernatant of MDCK cells incubated with H1N1 for 6 hours
compound,measurement,setting,value
NC1=NCCN1CC(=O)O [cyclocreatine],myocardial pH,"[1]; 6 minutes after induction of warm ischemia, control pH 6.00",7.04
same,reduction of caspase enzyme activities,[1]; control dogs 1.44-3.86-fold increase over baseline,26-76 % reduction of baseline
same,time heart continued to beat during warm ischemia after aortic cross clamping,"[1]; dog, 25 gm in 500 ml saline i.v. one hour before ischemia, control 2 minutes",9 min
same,TNF-α released by monocytes,"[1]; dog, in vivo",reduced
same,inflammation/pain and injury induced by inflammation,"[1]; dog, in vivo",reduced
same,level of the cardiac-derived leukocyte factor,"[1]; dog, in vivo",reduced
same,contractility on the Longerdorff working heart,"[1]; one-hour analysis, control strong only first 15-20 minutes",strong contractility throughout the one-hour analysis
same,apoptosis as measured by caspase enzyme activity,[1]; treated heart vs controls,significant reduction
same,myocardial ATP compared to controls,[1]; treated heart vs controls,three-fold increase
same,intracellular edema as measured by MRI,[1]; vs control,reduced
same,myocardial tissue lactic acidosis (per MRI),[1]; vs control,reduced
same,level of cell injury marker malondialdehyde,[1]; vs controls,reduced
"LVVYPWT [Spinorphin, Leu-Val-Val-Tyr-Pro-Trp-Thr]",inhibition of neutrophil chemotaxis stimulated by Nourin,[2],inhibited
"t-Boc-Phe-Leu-Phe-Leu-Phe (Boc-FLFLF; not fully specified (residues 2, 4); printed as t-Boc-Phe-Leu-Phe-Leu-Phe)",inhibition of fMLF chemotactic activity,[3],inhibits
same,inhibition of neutrophil chemotaxis induced by vascular Nourin,[2]; 10^-5 M final concentration,up to 60%
same,"inhibition of neutrophil chemotaxis induced by vascular Nourin, one human sample",[2]; one human sample,100%
same,inhibition of neutrophil chemotaxis induced by viral chemotactic factor,[4],30%-100%
